# Measured values as given in patent publication US20250282799A1, “SUBSTITUTED PYRIDO[4,3-d]PYRIMIDINES AS KRAS MODULATORS” (Alterome Therapeutics, Inc., priority 2023, published 2025).
# Tested on: KRAS G12V dependent lung adenocarcinoma cell line, NCI-H441
# Assay: Cellular pERK (Thr202/Tyr204) FRET/HTRF assay
# Type: cell-based
# Conditions: Homo sapiens, NCI-H441, cellular pERK (Thr202/Tyr204) HTRF, NCI-H441 cells
# Description: “Ras” refers to a protein in the Ras superfamily of small GTPases, such as in the Ras subfamily. […] The Ras proteins play a critical role in the regulation of cell behaviors, including proliferation, differentiation, and survival. […] KRAS G12V, G12D, and G12S variants are common in human cancers and Ras inhibitors binding in or near the Switch II pocket may provide mutant binding selectivity. RAS mutations are known to be often associated with pancreatic, colorectal and non-small-cell lung carcinomas (Lone, A. M. et al. J. Am. Chem. Soc. 2011,133, 11665-74, which is entirely incorporated herein by reference; Dillon, M. B.; Bachovchin, D. A.; Brown, S. J.; Finn, M. G.; Rosen, H.; Cravatt, B. F.; Mowen, K. A. ACS Chem. Biol. 2012, 7, 1198-204, which is entirely incorporated herein by reference; Bachovchin, D. A.; Brown, S. J.; Rosen, H.; Cravatt, B. F. Nat. Biotechnol. 2009, 27, 387-94, Ostrem, J. M.; Peters, U.; Sos, M. L.; Wells, J. A.; Shokat, K. M. Nature 2013, 503, 548-551. Ryan M. B. and Corcoran R. B, Nat. Rev Clin Onco. 2018, 11, 709-720.). Ras proteins are key members in the Ras/Raf/Mitogen-activated protein kinase (MAPK) signaling pathway. This pathway regulates a wide variety of cellular processes, including proliferation, differentiation, apoptosis, and stress responses. One way to measure the impact of an inhibitor of Ras proteins is to measure downstream phosphorylation of proteins in the MAPK pathway. The MAPK pathway includes extracellular signal-regulated kinases named ERK1 and ERK2, which are serine-threonine kinases that regulate cellular signaling under both normal and oncogenic conditions. ERK expression and hyperactivation via phosphorylation plays a major role in cancer progression and are downstream of Ras proteins. The assay used for measuring the downstream impact of Ras inhibition is the use of a highly sensitive cell-based readout of ERK phosphorylation (pERK) specifically on Threonine (Thr) 202 and Tyrosine (Tyr) 204 in a KRAS G12V dependent lung adenocarcinoma cell line, NCI-H441 (ATCC Cat #HTB-174). The assay described herein is suitable for assessing inhibition of Ras and can be tailored for any of the predominant oncogenic mutations in any isoform of Ras (e.g., KRAS, HRAS, and NRAS) by changing the cell line.
# pERK was measured using an advanced pERK assay designed for the robust and highly sensitive quantification of ERK phosphorylation on Thr202/Tyr204. This assay is intended for the simple, rapid, and direct detection of endogenous levels of ERK1/2 in cells, but only when ERK is phosphorylated at Thr202 and Tyr204 (Perkin Elmer Catalog #64AERPEH). pERK was detected in a FRET based sandwich assay format using 2 different specific antibodies, one labelled with Eu3+-Cryptate (donor) and the second with d2 (acceptor). When the dyes are in close proximity, the excitation of the donor with a light source (laser or flash lamp) triggers a Fluorescence Resonance Energy Transfer (FRET) towards the acceptor, which in turn fluoresces at a specific wavelength (665 nm). The specific signal modulates positively in proportion to p-ERK1/2 (Thr202/Tyr204). The simple mix-and-read protocol eliminates all wash steps for faster analysis and high-quality output. Briefly, cells were diluted to the desired concentration per well based on a growth curve showing ˜75% confluence within a 24-hour time period at no less than 95% viability. Cell suspension (24 μL) were added into each well of 384-well culture plate and maintained in 37° C. 5% CO2 incubator overnight prior to assay. All compounds were transferred to stock plates using TECAN (EVO200) liquid handler using DMSO as the solubilizing and dilution agent. Test compounds were transferred onto adherent cells using an Echo655 liquid handler. DMSO was employed as negative control. Cells were incubated with test compounds for 1 hr in a 37° C., 5% CO2 incubator following compound addition. […]
row,IC50 [µM],SMILES
1,0.5 to 10,"[2H]C([2H])(Oc1nc(N2CCOC[C@@H]3[C@@H](F)[C@@H]32)c2c(OC)nc(-c3cccc4ccc(F)c(C#C)c34)c(F)c2n1)[C@@]12CCCN1C[C@H](F)C2 [Example 236, (1R,7R,8R)-2-(7-(8-ethynyl-7-fluoronaphthalen-1-yl)-8-fluoro-2-(((2R,7aS)-2-fluorotetrahydro-1H-pyrrolizin-7a(5H)-yl)methoxy-d2)-5-methoxypyrido[4,3-d]pyrimidin-4-yl)-8-fluoro-5-oxa-2-azabicyclo[5.1.0]octane]"
2,0.5 to 10,"Cc1c(F)c(N)cc(-c2ncc3c(N4CCCC[C@H]5[C@H](F)[C@H]54)nc(OC[C@]45CC(=C(F)F)CN4CCC54CC4)nc3c2F)c1C(F)(F)F [Example 412, 5-(2-(((R)-6′-(difluoromethylene)tetrahydrospiro [cyclopropane-1,1′-pyrrolizin]-7a′(5′H)-yl)methoxy)-8-fluoro-4-((1S,7R,8S)-8-fluoro-2-azabicyclo[5.1.0]octan-2-yl)pyrido[4,3-d]pyrimidin-7-yl)-2-fluoro-3-methyl-4-(trifluoromethyl)aniline]"
3,0.05 to 0.5,"[2H]C([2H])(Oc1nc(N2CC[C@H](C#N)C[C@@H]3[C@@H](F)[C@@H]32)c2cnc(-c3cc(N)cc4ccc(F)c(C#C)c34)c(F)c2n1)[C@@]12CCCN1C[C@H](F)C2 [Example 307, (1R,5R,7S,8R)-2-(7-(3-amino-8-ethynyl-7-fluoronaphthalen-1-yl)-8-fluoro-2-(((2R,7aS)-2-fluorotetrahydro-1H-pyrrolizin-7a(5H)-yl)methoxy-d2)pyrido[4,3-d]pyrimidin-4-yl)-8-fluoro-2-azabicyclo[5.1.0]octane-5-carbonitrile]"
4,< 0.05,"[2H]C([2H])(F)Oc1c(F)ccc2cc(N)cc(-c3ncc4c(N5CCOC[C@H]6[C@H](F)[C@H]65)nc(OC[C@@]56CCCN5C[C@H](C)C6)nc4c3F)c12 (single isomer, unassigned) [Example 215]"
5,0.05 to 0.5,"[2H]C([2H])(Oc1nc(N2CC[C@@H](C#N)C[C@H]3[C@@H](F)[C@H]32)c2cnc(-c3cc(N)cc4ccc(F)c(C#C)c34)c(F)c2n1)[C@@]12CCCN1C[C@H](F)C2 [Example 308, (1S,5S,7R,8R)-2-(7-(3-amino-8-ethynyl-7-fluoronaphthalen-1-yl)-8-fluoro-2-(((2R,7aS)-2-fluorotetrahydro-1H-pyrrolizin-7a(5H)-yl)methoxy-d2)pyrido[4,3-d]pyrimidin-4-yl)-8-fluoro-2-azabicyclo[5.1.0]octane-5-carbonitrile]"
6,< 0.05,"C=C1CN2CCC[C@@]2(COc2nc(N3CCCC[C@H]4[C@H](F)[C@H]43)c3cnc(-c4cc(N)cc(Cl)c4C(F)(F)F)c(F)c3n2)C1 [Example 367, 3-chloro-5-(8-fluoro-4-((1S,7R,8S)-8-fluoro-2-azabicyclo[5.1.0]octan-2-yl)-2-(((S)-2-methylenetetrahydro-1H-pyrrolizin-7a(5H)-yl)methoxy)pyrido[4,3-d]pyrimidin-7-yl)-4-(trifluoromethyl)aniline]"

# Same assay, conditions: Homo sapiens, NCI-H441, cellular pERK HTRF, NCI-H441 (KRAS G12V) cells
row,IC50 [µM],SMILES
1,< 0.05,"[2H]C([2H])(Oc1nc(N2CCCC[C@H]3[C@H](Cl)[C@H]32)c2cnc(-c3cc(N)cc4ccc(F)c(C#C)c34)c(C)c2n1)[C@@]12CCCN1C[C@H](F)C2 [Example 464, 4-(4-((1S,7R,8S)-8-chloro-2-azabicyclo[5.1.0]octan-2-yl)-2-(((2R,7aS)-2-fluorotetrahydro-1H-pyrrolizin-7a(5H)-yl)methoxy-d2)-8-methylpyrido[4,3-d]pyrimidin-7-yl)-5-ethynyl-6-fluoronaphthalen-2-amine]"
2,< 0.05,"[2H]C([2H])(Oc1nc(N2CCOC[C@H]3[C@H](F)[C@H]32)c2cnc(-c3cc(O)cc4ccc(F)c(C#C)c34)c(C)c2n1)[C@@]12CCCN1C[C@H](F)C2 [Example 445, 5-Ethynyl-6-fluoro-4-(4-((1S,7S,8S)-8-fluoro-5-oxa-2-azabicyclo[5.1.0]octan-2-yl)-2-(((2R,7aS)-2-fluorotetrahydro-1H-pyrrolizin-7a(5H)-yl)methoxy-d2)-8-methylpyrido[4,3-d]pyrimidin-7-yl)naphthalen-2-ol]"
3,< 0.05,"C#Cc1c(F)ccc2cc(O)cc(-c3ncc4c(N5CCOC[C@H]6[C@H](F)[C@H]65)nc(OC[C@]56C/C(=C/F)CN5CCC65CC5)nc4c3C)c12 [Example 449, 5-ethynyl-6-fluoro-4-(4-((1S,7S,8S)-8-fluoro-5-oxa-2-azabicyclo[5.1.0]octan-2-yl)-2-(((R,Z)-6′-(fluoromethylene)tetrahydrospiro[cyclopropane-1,1′-pyrrolizin]-7a′(5′H)-yl)methoxy)-8-methylpyrido[4,3-d]pyrimidin-7-yl)naphthalen-2-ol]"

# Same assay, conditions: Homo sapiens, NCI-H441, pERK HTRF, NCI-H441 cells (KRAS G12V)
row,IC50 [µM],SMILES
1,0.05 to 0.5,"[2H]C([2H])(Oc1nc(N2CCCO[C@@H]3C[C@@H]32)c2cnc(-c3cc(O)cc4ccc(F)c(C#C)c34)c(F)c2n1)[C@@]12CCCN1C[C@H](F)C2 [Example 11, 4-(4-((1R,7S)-2-Oxa-6-azabicyclo[5.1.0]octan-6-yl)-8-fluoro-2-(((2R,7aS)-2-fluorotetrahydro-1H-pyrrolizin-7a(5H)-yl)methoxy-d2)pyrido[4,3-d]pyrimidin-7-yl)-5-ethynyl-6-fluoronaphthalen-2-ol]"
2,0.5 to 10,"C#Cc1c(F)ccc2cc(O)cc(-c3ncc4c(N5CCCC[C@@H]6C[C@@H]65)nc(OC[C@@]56CCCN5C[C@H](F)C6)nc4c3F)c12 [Example 1, 4-(4-((1S,7R)-2-Azabicyclo[5.1.0]octan-2-yl)-8-fluoro-2-(((2R,7aS)-2-fluorotetrahydro-1H-pyrrolizin-7a(5H)-yl)methoxy)pyrido[4,3-d]pyrimidin-7-yl)-5-ethynyl-6-fluoronaphthalen-2-ol]"
3,< 0.05,"[2H]C([2H])(Oc1nc(N2CCCO[C@H]3C[C@H]32)c2cnc(-c3cc(O)cc4ccc(F)c(C#C)c34)c(F)c2n1)[C@@]12CCCN1C[C@H](F)C2 [Example 10, 4-(4-((1S,7R)-2-Oxa-6-azabicyclo[5.1.0]octan-6-yl)-8-fluoro-2-(((2R,7aS)-2-fluorotetrahydro-1H-pyrrolizin-7a(5H)-yl)methoxy-d2)pyrido[4,3-d]pyrimidin-7-yl)-5-ethynyl-6-fluoronaphthalen-2-ol]"
4,0.05 to 0.5,"[2H]C([2H])(Oc1nc(N2CCCO[C@H]3C[C@H]32)c2cnc(-c3ccc(F)c4sc(N)c(C#N)c34)c(F)c2n1)[C@@]12CCCN1C[C@H](F)C2 [Example 39, 4-(4-((1S,7R)-2-Oxa-6-azabicyclo[5.1.0]octan-6-yl)-8-fluoro-2-(((2R,7aS)-2-fluorotetrahydro-1H-pyrrolizin-7a(5H)-yl)methoxy-d2)pyrido[4,3-d]pyrimidin-7-yl)-2-amino-7-fluorobenzo[b]thiophene-3-carbonitrile]"
5,< 0.05,"C#Cc1c(F)ccc2cc(O)cc(-c3ncc4c(N5CCCC[C@H]6C[C@H]65)nc(OC[C@@]56CCCN5C[C@H](F)C6)nc4c3F)c12 [Example 2, 4-(4-((1R,7S)-2-azabicyclo[5.1.0]octan-2-yl)-8-fluoro-2-(((2R,7aS)-2-fluorotetrahydro-1H-pyrrolizin-7a(5H)-yl)methoxy)pyrido[4,3-d]pyrimidin-7-yl)-5-ethynyl-6-fluoronaphthalen-2-ol]"
